# Measurements published in the supplement of paper PMC4862054.
# System: CAL-85-1
# Test: normalised response (% of control), CellTiter-Glo; higher = more viable cells (100 = DMSO, 0 = benzethonium chloride kill control)
# Settings: incubation time: 72 h
# Outline: (§1)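 In 384-well plates holding compound at 5 concentrations in 10-fold steps over a 10,000-fold range specific to each compound, breast cancer cell lines were seeded as 20 µl suspension and incubated 72 h. CellTox Green fluorescence was measured at 485/520 nm, after which CellTiter-Glo luminescence was measured following 10 min at room temperature. Plate signals were normalised to 0.1 % DMSO (100) and a positive kill control (0), and each value is the normalised signal at a single concentration.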
row,SMILES,normalised response
1,CS(=O)(=O)N1CCN(Cc2cc3nc(-c4cccc5[nH]ncc45)nc(N4CCOCC4)c3s2)CC1 [Pictilisib] (1000 nM),63.5%
2,c1cc(CN2CCCNCCNCCCNCC2)ccc1CN1CCCNCCNCCCNCC1 [Plerixafor] (1000 nM),96.1%
3,CC(C)N(CCCNC(=O)Nc1ccc(C(C)(C)C)cc1)C[C@H]1O[C@@H](n2cc(Br)c3c(N)ncnc32)[C@H](O)[C@@H]1O [SGC0946] (1 nM),98.4%
4,CC(C)N(CCCNC(=O)Nc1ccc(C(C)(C)C)cc1)C[C@H]1O[C@@H](n2cc(Br)c3c(N)ncnc32)[C@H](O)[C@@H]1O [SGC0946] (10 nM),94%
5,CC(C)N(CCCNC(=O)Nc1ccc(C(C)(C)C)cc1)C[C@H]1O[C@@H](n2cc(Br)c3c(N)ncnc32)[C@H](O)[C@@H]1O [SGC0946] (1000 nM),102%
6,CNC(=O)c1cc(Oc2ccc(NC(=O)Nc3ccc(Cl)c(C(F)(F)F)c3)cc2)ccn1 [Sorafenib] (0.1 nM),101%
7,CCN(CC)CCNC(=O)c1c(C)[nH]c(/C=C2\C(=O)Nc3ccc(F)cc32)c1C [Sunitinib] (0.1 nM),99.9%
8,CCN(CC)CCNC(=O)c1c(C)[nH]c(/C=C2\C(=O)Nc3ccc(F)cc32)c1C [Sunitinib] (1 nM),99.9%
9,CC[C@@]1(O)C(=O)OCc2c1cc1n(c2=O)Cc2cc3c(CN(C)C)c(O)ccc3nc2-1 [Topotecan] (1 nM),95.6%

# System: HDQ-P1
# Test: as above
# Settings: incubation time: 72 h
# Outline: as §1
row,SMILES,normalised response
1,Cc1c(Cn2c(C)nc3c(C(=O)O)cc(N4CCOCC4)cc32)cccc1C(F)(F)F (1000 nM),105%
2,CCCCC/C=C/C=C1/C(=O)C=C[C@@H]1C/C=C\CCCC(=O)O [15D-PGJ2] (80 nM),99.9%
3,CS(=O)(=O)N1CCN(Cc2cc3nc(-c4cccc5[nH]ncc45)nc(N4CCOCC4)c3s2)CC1 [Pictilisib] (1000 nM),47.1%
4,c1cc(CN2CCCNCCNCCCNCC2)ccc1CN1CCCNCCNCCCNCC1 [Plerixafor] (1000 nM),101%
5,CC(C)N(CCCNC(=O)Nc1ccc(C(C)(C)C)cc1)C[C@H]1O[C@@H](n2cc(Br)c3c(N)ncnc32)[C@H](O)[C@@H]1O [SGC0946] (1 nM),94.5%
6,CC(C)N(CCCNC(=O)Nc1ccc(C(C)(C)C)cc1)C[C@H]1O[C@@H](n2cc(Br)c3c(N)ncnc32)[C@H](O)[C@@H]1O [SGC0946] (10 nM),97.2%
7,CC(C)N(CCCNC(=O)Nc1ccc(C(C)(C)C)cc1)C[C@H]1O[C@@H](n2cc(Br)c3c(N)ncnc32)[C@H](O)[C@@H]1O [SGC0946] (1000 nM),102%
8,CNC(=O)c1cc(Oc2ccc(NC(=O)Nc3ccc(Cl)c(C(F)(F)F)c3)cc2)ccn1 [Sorafenib] (0.1 nM),99.7%
9,CCN(CC)CCNC(=O)c1c(C)[nH]c(/C=C2\C(=O)Nc3ccc(F)cc32)c1C [Sunitinib] (0.1 nM),98.5%
10,CCN(CC)CCNC(=O)c1c(C)[nH]c(/C=C2\C(=O)Nc3ccc(F)cc32)c1C [Sunitinib] (1 nM),97.1%
11,CC[C@@]1(O)C(=O)OCc2c1cc1n(c2=O)Cc2cc3c(CN(C)C)c(O)ccc3nc2-1 [Topotecan] (1 nM),99.7%

# System: MDA-MB-453
# Test: as above
# Settings: incubation time: 72 h
# Outline: as §1
row,SMILES,normalised response
1,Cc1c(Cn2c(C)nc3c(C(=O)O)cc(N4CCOCC4)cc32)cccc1C(F)(F)F (1000 nM),93.1%
2,CCCCC/C=C/C=C1/C(=O)C=C[C@@H]1C/C=C\CCCC(=O)O [15D-PGJ2] (80 nM),96.8%
3,CS(=O)(=O)N1CCN(Cc2cc3nc(-c4cccc5[nH]ncc45)nc(N4CCOCC4)c3s2)CC1 [Pictilisib] (1000 nM),38.6%
4,c1cc(CN2CCCNCCNCCCNCC2)ccc1CN1CCCNCCNCCCNCC1 [Plerixafor] (1000 nM),80.1%
5,CC(C)N(CCCNC(=O)Nc1ccc(C(C)(C)C)cc1)C[C@H]1O[C@@H](n2cc(Br)c3c(N)ncnc32)[C@H](O)[C@@H]1O [SGC0946] (1 nM),95.3%
6,CC(C)N(CCCNC(=O)Nc1ccc(C(C)(C)C)cc1)C[C@H]1O[C@@H](n2cc(Br)c3c(N)ncnc32)[C@H](O)[C@@H]1O [SGC0946] (10 nM),89.4%
7,CC(C)N(CCCNC(=O)Nc1ccc(C(C)(C)C)cc1)C[C@H]1O[C@@H](n2cc(Br)c3c(N)ncnc32)[C@H](O)[C@@H]1O [SGC0946] (1000 nM),104%
8,CNC(=O)c1cc(Oc2ccc(NC(=O)Nc3ccc(Cl)c(C(F)(F)F)c3)cc2)ccn1 [Sorafenib] (0.1 nM),108%
9,CCN(CC)CCNC(=O)c1c(C)[nH]c(/C=C2\C(=O)Nc3ccc(F)cc32)c1C [Sunitinib] (0.1 nM),106%
10,CCN(CC)CCNC(=O)c1c(C)[nH]c(/C=C2\C(=O)Nc3ccc(F)cc32)c1C [Sunitinib] (1 nM),105%
11,CC[C@@]1(O)C(=O)OCc2c1cc1n(c2=O)Cc2cc3c(CN(C)C)c(O)ccc3nc2-1 [Topotecan] (1 nM),103%

# System: HCC1143
# Test: as above
# Settings: incubation time: 72 h
# Outline: as §1
row,SMILES,normalised response
1,Cc1c(Cn2c(C)nc3c(C(=O)O)cc(N4CCOCC4)cc32)cccc1C(F)(F)F (1000 nM),103%
2,CCCCC/C=C/C=C1/C(=O)C=C[C@@H]1C/C=C\CCCC(=O)O [15D-PGJ2] (80 nM),104%
3,CS(=O)(=O)N1CCN(Cc2cc3nc(-c4cccc5[nH]ncc45)nc(N4CCOCC4)c3s2)CC1 [Pictilisib] (1000 nM),68%
4,c1cc(CN2CCCNCCNCCCNCC2)ccc1CN1CCCNCCNCCCNCC1 [Plerixafor] (1000 nM),97.3%
5,CC(C)N(CCCNC(=O)Nc1ccc(C(C)(C)C)cc1)C[C@H]1O[C@@H](n2cc(Br)c3c(N)ncnc32)[C@H](O)[C@@H]1O [SGC0946] (1 nM),89.9%
6,CC(C)N(CCCNC(=O)Nc1ccc(C(C)(C)C)cc1)C[C@H]1O[C@@H](n2cc(Br)c3c(N)ncnc32)[C@H](O)[C@@H]1O [SGC0946] (10 nM),99.9%
7,CC(C)N(CCCNC(=O)Nc1ccc(C(C)(C)C)cc1)C[C@H]1O[C@@H](n2cc(Br)c3c(N)ncnc32)[C@H](O)[C@@H]1O [SGC0946] (1000 nM),96.5%
8,CNC(=O)c1cc(Oc2ccc(NC(=O)Nc3ccc(Cl)c(C(F)(F)F)c3)cc2)ccn1 [Sorafenib] (0.1 nM),99.7%
9,CCN(CC)CCNC(=O)c1c(C)[nH]c(/C=C2\C(=O)Nc3ccc(F)cc32)c1C [Sunitinib] (0.1 nM),103%
10,CCN(CC)CCNC(=O)c1c(C)[nH]c(/C=C2\C(=O)Nc3ccc(F)cc32)c1C [Sunitinib] (1 nM),103%
11,CC[C@@]1(O)C(=O)OCc2c1cc1n(c2=O)Cc2cc3c(CN(C)C)c(O)ccc3nc2-1 [Topotecan] (1 nM),92.8%

# System: HCC1599
# Test: as above
# Settings: incubation time: 72 h
# Outline: as §1
row,SMILES,normalised response
1,Cc1c(Cn2c(C)nc3c(C(=O)O)cc(N4CCOCC4)cc32)cccc1C(F)(F)F (1000 nM),117%
2,CCCCC/C=C/C=C1/C(=O)C=C[C@@H]1C/C=C\CCCC(=O)O [15D-PGJ2] (80 nM),88.8%
3,CS(=O)(=O)N1CCN(Cc2cc3nc(-c4cccc5[nH]ncc45)nc(N4CCOCC4)c3s2)CC1 [Pictilisib] (1000 nM),96.1%
4,c1cc(CN2CCCNCCNCCCNCC2)ccc1CN1CCCNCCNCCCNCC1 [Plerixafor] (1000 nM),102%
5,CC(C)N(CCCNC(=O)Nc1ccc(C(C)(C)C)cc1)C[C@H]1O[C@@H](n2cc(Br)c3c(N)ncnc32)[C@H](O)[C@@H]1O [SGC0946] (1 nM),93.8%
6,CC(C)N(CCCNC(=O)Nc1ccc(C(C)(C)C)cc1)C[C@H]1O[C@@H](n2cc(Br)c3c(N)ncnc32)[C@H](O)[C@@H]1O [SGC0946] (10 nM),93.8%
7,CC(C)N(CCCNC(=O)Nc1ccc(C(C)(C)C)cc1)C[C@H]1O[C@@H](n2cc(Br)c3c(N)ncnc32)[C@H](O)[C@@H]1O [SGC0946] (1000 nM),102%
8,CNC(=O)c1cc(Oc2ccc(NC(=O)Nc3ccc(Cl)c(C(F)(F)F)c3)cc2)ccn1 [Sorafenib] (0.1 nM),103%
9,CCN(CC)CCNC(=O)c1c(C)[nH]c(/C=C2\C(=O)Nc3ccc(F)cc32)c1C [Sunitinib] (0.1 nM),94.7%
10,CCN(CC)CCNC(=O)c1c(C)[nH]c(/C=C2\C(=O)Nc3ccc(F)cc32)c1C [Sunitinib] (1 nM),119%
11,CC[C@@]1(O)C(=O)OCc2c1cc1n(c2=O)Cc2cc3c(CN(C)C)c(O)ccc3nc2-1 [Topotecan] (1 nM),95%

# System: BT-549
# Test: as above
# Settings: incubation time: 72 h
# Outline: as §1
row,SMILES,normalised response
1,Cc1c(Cn2c(C)nc3c(C(=O)O)cc(N4CCOCC4)cc32)cccc1C(F)(F)F (1000 nM),75.5%
2,CCCCC/C=C/C=C1/C(=O)C=C[C@@H]1C/C=C\CCCC(=O)O [15D-PGJ2] (80 nM),99.1%
3,CS(=O)(=O)N1CCN(Cc2cc3nc(-c4cccc5[nH]ncc45)nc(N4CCOCC4)c3s2)CC1 [Pictilisib] (1000 nM),58.7%
4,c1cc(CN2CCCNCCNCCCNCC2)ccc1CN1CCCNCCNCCCNCC1 [Plerixafor] (1000 nM),105%
5,CC(C)N(CCCNC(=O)Nc1ccc(C(C)(C)C)cc1)C[C@H]1O[C@@H](n2cc(Br)c3c(N)ncnc32)[C@H](O)[C@@H]1O [SGC0946] (1 nM),99.2%
6,CC(C)N(CCCNC(=O)Nc1ccc(C(C)(C)C)cc1)C[C@H]1O[C@@H](n2cc(Br)c3c(N)ncnc32)[C@H](O)[C@@H]1O [SGC0946] (10 nM),93.1%
7,CC(C)N(CCCNC(=O)Nc1ccc(C(C)(C)C)cc1)C[C@H]1O[C@@H](n2cc(Br)c3c(N)ncnc32)[C@H](O)[C@@H]1O [SGC0946] (1000 nM),95.5%
8,CNC(=O)c1cc(Oc2ccc(NC(=O)Nc3ccc(Cl)c(C(F)(F)F)c3)cc2)ccn1 [Sorafenib] (0.1 nM),104%
9,CCN(CC)CCNC(=O)c1c(C)[nH]c(/C=C2\C(=O)Nc3ccc(F)cc32)c1C [Sunitinib] (0.1 nM),100%
10,CCN(CC)CCNC(=O)c1c(C)[nH]c(/C=C2\C(=O)Nc3ccc(F)cc32)c1C [Sunitinib] (1 nM),95.5%
11,CC[C@@]1(O)C(=O)OCc2c1cc1n(c2=O)Cc2cc3c(CN(C)C)c(O)ccc3nc2-1 [Topotecan] (1 nM),97.3%

# System: MCF-10A
# Test: normalised response (% of control), CellTox Green; higher = less cell death (100 = DMSO, 0 = benzethonium chloride kill control)
# Settings: incubation time: 72 h
# Outline: as §1
row,SMILES,normalised response
1,Cc1c(Cn2c(C)nc3c(C(=O)O)cc(N4CCOCC4)cc32)cccc1C(F)(F)F (1000 nM),110%
2,CCCCC/C=C/C=C1/C(=O)C=C[C@@H]1C/C=C\CCCC(=O)O [15D-PGJ2] (80 nM),104%
3,CS(=O)(=O)N1CCN(Cc2cc3nc(-c4cccc5[nH]ncc45)nc(N4CCOCC4)c3s2)CC1 [Pictilisib] (1000 nM),44.2%
4,c1cc(CN2CCCNCCNCCCNCC2)ccc1CN1CCCNCCNCCCNCC1 [Plerixafor] (1000 nM),86.6%
5,CC(C)N(CCCNC(=O)Nc1ccc(C(C)(C)C)cc1)C[C@H]1O[C@@H](n2cc(Br)c3c(N)ncnc32)[C@H](O)[C@@H]1O [SGC0946] (1000 nM),107%

# System: HCC1937
# Test: as above
# Settings: incubation time: 72 h
# Outline: as §1
row,SMILES,normalised response
1,Cc1c(Cn2c(C)nc3c(C(=O)O)cc(N4CCOCC4)cc32)cccc1C(F)(F)F (1000 nM),106%
2,CCCCC/C=C/C=C1/C(=O)C=C[C@@H]1C/C=C\CCCC(=O)O [15D-PGJ2] (80 nM),123%
3,CS(=O)(=O)N1CCN(Cc2cc3nc(-c4cccc5[nH]ncc45)nc(N4CCOCC4)c3s2)CC1 [Pictilisib] (1000 nM),126%
4,c1cc(CN2CCCNCCNCCCNCC2)ccc1CN1CCCNCCNCCCNCC1 [Plerixafor] (1000 nM),54.1%
